From patent publication US12369582B2, “Pyridyloxyacetic acid compound and use of same” (SUMITOMO CHEMICAL COMPANY, LIMITED, priority 2019, dated 2025) come the findings set out here.

Molecules are shown by their SMILES.

The assay has as its system Phytophthora capsici. In words: Titer plate growth inhibition test on Phytophthora capsici zoospores in potato dextrose broth. To be noted: final concentration 100 ppm; cultured at 27° C. for 3 days; absorbance at 600 nm vs non-treated section. Type of assay: cell-based. The procedure: Next, test examples are shown. A non-treated in Test Example 1 means a section in which the same operation as in a treated section is performed except that Compound A is not used. After dispensing 1 μL of a dimethyl sulfoxide solution containing a predetermined concentration of Compound A into wells of a titer plate (96 wells), 150 μL of a potato dextrose broth containing zoospores of Phytophthora capsici was dispensed, and the mixture was prepared so as to have a final concentration of Compound A of 100 ppm and defined as a treated section. In addition, a non-treated section was prepared in other wells. The plate was cultured at 27° C. for 3 days to proliferate Phytophthora capsici […], and then the absorbance at 600 nm of each well of the titer plate was measured and defined as the growth degree of Phytophthora capsici. Based on the growth degree, the efficacy was calculated using “Formula 1”. Efficacy(%)=100×(X−Y)/X “Formula 1” • X: Growth degree of bacteria in non-treated section • Y: Growth degree of bacteria in treated section A test was performed according to Test Example 1 using sodium salt monohydrate of Compound A in place of Compound A. As a result, the efficacy was 90%. A test was performed according to Test Example 1 using Compound B in place of Compound A. As a result, the efficacy was 64%.

In turn, `O=C(O)COc1ncccc1Oc1ccc(F)cc1Cl` [Compound A, 2-{[3-(2-Chloro-4-fluorophenoxy)pyridin-2-yl]oxy}acetic acid] gave an Efficacy of 100%.

As for `CCOC(=O)COc1ncccc1Oc1ccc(F)cc1Cl` [Compound B, 2-{[3-(2-chloro-4-fluorophenoxy)pyridin-2-yl]oxy}acetic acid ethyl ester], the Efficacy amounted to 64%.
